This is an account of results in US12600808B2, “Crosslinkable prepolymers for chemically stable polymer gels” (priority 2020, dated 2026).

Type in all cases: physicochemical
The nature of data set [1]: Photopolymerization efficiency, gravimetric determination of the cured polymer mass. The following applies: photopolymerization efficiency test per application example 5 with antioxidant. How it is done:
The photopolymerization efficiency was examined by gravimetric determination of the cured polymer mass: Solutions containing prepolymer prepared according to examples 5-7, 10 or 11 (15% w/w) and photoinitiator (0.1% w/w) were prepared in deionized water. 500 mg of the premixed solutions were loaded into a 2 mL polystyrene cuvette and irradiated for 60 s with a laser (X=405 nm, p=10 mW) from the side. The solid hydrogels were removed, wiped to remove residual liquid, and weighed. The ratio of solid, cure material to liquid, uncured material was calculated and used as a measure for the photopolymerization efficiency. The setup used is depicted in FIG. 2: 301 represents the polystyrene cuvette, 302 the liquid prepolymer composition, 303 the solidified hydrogel and 304 the laser beam.
The photopolymerization efficiency of the prepolymers PEG-DMA (prepared according to example 7), linker-containing PEG-dimethacrylates (example 5-7), PEG-DAAm (example 10), linker-containing PEG-diacrylamides (example 11) and 1OR5-Dimethacrylate (example 12) was compared according to application example 5: […]

Data set [2] is described as follows: Retainment of antioxidants in hydrogel samples, leaching with weekly exchange of heavy water. How it is done:
The retainment properties of antioxidants were tested by preparing and aging antioxidant-doped samples according to application example 3. The heavy water the hydrogels samples were aged in was exchanged weekly, followed by testing of the heavy water. Detection of decomposition was observed by NMR spectroscopy with the formation of decomposition markers, such as formic acid, in the liquid. This was quantified with the addition of an internal standard.
Retainment of BHT and sodium fenozan was studied according to […].

The nature of data set [3]: Antioxidant testing: accelerated aging of antioxidant-doped hydrogels in D2O, decomposition markers by NMR. The following applies: antioxidant added to prepolymer formulation (BHT with 1% DMSO). An excerpt:
The influence of different antioxidants on hydrogel stability was studied by doping prepolymer formulations with specified antioxidants prior to photopolymerization as described in application example 1, followed by accelerated aging experiments in heavy water (D20).
Detection of decomposition was observed by NMR spectroscopy with the formation of decomposition markers, such as formic acid, in the liquid. This was quantified with the addition of an internal standard.

For the molecule `Cc1cc(C(C)(C)C)c(O)c(C(C)(C)C)c1` [BHT], the “Reduction of polymerized mass in presence of antioxidant” value in data set [1] is “no reduction of polymerized masses was observed”. For the same molecule, the “Retainment of antioxidant in hydrogel (decomposition markers and antioxidant in leached solvent)” value in data set [2] (leaching experiments over three weeks) was “lack of decomposition markers and antioxidant in the leached solvent”. Further, in data set [3], the “Decomposition (decomposition marker such as formic acid) of hydrogel with antioxidant” value was “no decomposition was observed”.

As for `CC(C)(C)c1cc(CCC(=O)[O-])cc(C(C)(C)C)c1O.[Na+]` [sodium fenozan], the “Reduction of polymerized mass in presence of antioxidant” value in data set [1] is on record as “no reduction of polymerized masses was observed”. Further, the “Decomposition markers in leached solvent” value in data set [2] (after 3 weeks of leaching) turned out to be 1.4 mM. Besides, the “Decomposition (decomposition marker such as formic acid) of hydrogel with antioxidant” value in data set [3] is listed as “no decomposition was observed”.
